Article PMC10796410 (Cancer Chemotherapy and Pharmacology, 2023)
Where “and” joins values, the source holds several entries; their conditions need not be identical. Equal values may be shown once. Read-outs that look alike come from different tables or passages of the source.

Key:
MATE2K = system: MATE2K; parameters: method as in earlier work; settings: in vitro studies; cited from earlier work
[1] = Plasma pharmacokinetics of olaparib in rats after a single oral dose, alone or with metformin (UPLC-MS/MS, non-compartmental); format: in vivo, Wistar rats; settings: for concentration at 0.083 h / concentration at 0.167 h / concentration at 0.333 h / concentration at 0.5 h / concentration at 0.75 h / concentration at 1 h / concentration at 2 h / concentration at 3 h / concentration at 4 h / concentration at 6 h / concentration at 8 h / concentration at 10 h / concentration at 12 h / concentration at 24 h / AUC(0-inf) / AUC(0-t) / Cmax / Tmax / Vd/F / k el: male, Wistar, rat, plasma; for concentration at 0.083 h / concentration at 0.167 h / concentration at 0.333 h / concentration at 0.5 h / concentration at 0.75 h / concentration at 1 h / concentration at 2 h / concentration at 3 h / concentration at 4 h / concentration at 6 h / concentration at 8 h / concentration at 10 h / concentration at 12 h / concentration at 24 h: oral, group mean, read-out: Cave_ola; for AUC(0-inf) / AUC(0-t) / Cmax / Tmax / Vd/F / k el: po; for AUC(0-inf) / AUC(0-t) / Cmax / Tmax / Vd/F / k el / Cl/F / t0.5: rat plasma, n = 8, mean ± SD
Excerpt: All applicable international, national, and/or institutional guidelines for the care and use of animals were followed. The animals were given a standard diet and water ad libitum, and the experimental protocol for this study was approved by the Local Ethics Committee (No. 45/2022, of 27 May 2022), Poznań University of Life Sciences, Department of Animal Physiology and Biochemistry, Wołyńska 35, 60–637 Poznań, Poland. Adult male Wistar rats (weight 380–530 g) were used in the study. The animals were maintained under standard breeding conditions with a 12/12 h light–dark cycle (lights on at 06.00, lights off at 18.00) at constant room temperature (23 ± 2 °C), relative humidity of 55 ± 10% and given ad libitum access to food and water. The animals were allowed to acclimatize for a week before the beginning of the experiments. The rats were divided into three groups. […] The solution for oral metformin administration was prepared in saline at a single dose of 100 mg/kg. Drugs were orally administered to rats by gavage between 7:00 a.m. and 8:00 a.m. […] The blood samples were centrifuged at 5000 rpm for 10 min, and the plasma was transferred to new centrifuge tubes and then stored at – 80 °C.
A Cortecs UPLC C18 column (2.1 × 50 mm, 1.6 µm, Waters Corporation, Milford, MA, USA) was used for chromatographic separation. The column temperature and injection volume were set at 40 °C and 1 µl, respectively. The mobile phase comprised acetonitrile (eluent A) and 2 mM ammonium acetate in water (eluent B) with 0.1% 98–100% formic acid. The flow rate was maintained at 0.3 ml/min. The gradient elution was as follows: 0–3 min, 5% A; […]; 3–5 min, linear from 5 to 95% A; 5–6 min, linear from 95 to 5% A. The mass spectrometer operated in the multiple reaction monitoring mode.
The maximum plasma concentration (Cmax) and the time to reach the Cmax (tmax) were obtained directly from the measured values. All of the above-mentioned parameters underwent statistical analysis.

OCT2 = system: OCT2; parameters: method as in earlier work; settings: in vitro studies; cited from earlier work
MATE1 = system: MATE1; parameters: method as in earlier work; settings: in vitro studies; cited from earlier work
BCRP = system: BCRP; parameters: method as in earlier work; settings: in vitro studies; cited from earlier work
OCT1 = system: OCT1; parameters: method as in earlier work; settings: in vitro studies; cited from earlier work
[2] = system: epithelial ovarian cancer cell lines; settings: drugs given separately or co-administered; cited from earlier work
OATP1B1 = system: OATP1B1; parameters: method as in earlier work; settings: in vitro studies; cited from earlier work
OAT3 = system: OAT3; parameters: method as in earlier work; settings: in vitro studies; cited from earlier work
[3] = 100 mg/kg, IIIOLA: olaparib 100 mg/kg b.w. oral single dose alone
[4] = 100 mg/kg, IMET+OLA: metformin 100 mg/kg b.w. + olaparib 100 mg/kg b.w. oral single dose
[5] = IIIOLA: olaparib 100 mg/kg b.w. oral single dose alone
[6] = IMET+OLA: metformin 100 mg/kg b.w. + olaparib 100 mg/kg b.w. oral single dose

Q: Which results are given for `O=C(c1cc(Cc2n[nH]c(=O)c3ccccc23)ccc1F)N1CCN(C(=O)C2CC2)CC1` [olaparib, Olaparib]?
A: inhibition of MATE2K (MATE2K): inhibits; concentration at 0.083 h ([1]; 100 mg/kg, t 0.083 h, IIIOLA (olaparib alone)): 1080 ng/mL; concentration at 0.167 h ([1]; 100 mg/kg, t 0.167 h, IIIOLA (olaparib alone)): 2220 ng/mL; concentration at 0.333 h ([1]; 100 mg/kg, t 0.333 h, IIIOLA (olaparib alone)): 3790 ng/mL; concentration at 0.5 h ([1]; 100 mg/kg, t 0.500 h, IIIOLA (olaparib alone)): 4590 ng/mL; concentration at 0.75 h ([1]; 100 mg/kg, t 0.750 h, IIIOLA (olaparib alone)): 4440 ng/mL; concentration at 1 h ([1]; 100 mg/kg, t 1 h, IIIOLA (olaparib alone)): 7110 ng/mL; concentration at 2 h ([1]; 100 mg/kg, t 2 h, IIIOLA (olaparib alone)): 6050 ng/mL; concentration at 3 h ([1]; 100 mg/kg, t 3 h, IIIOLA (olaparib alone)): 4140 ng/mL; concentration at 4 h ([1]; 100 mg/kg, t 4 h, IIIOLA (olaparib alone)): 528 ng/mL; concentration at 6 h ([1]; 100 mg/kg, t 6 h, IIIOLA (olaparib alone)): 1460 ng/mL; concentration at 8 h ([1]; 100 mg/kg, t 8 h, IIIOLA (olaparib alone)): 851 ng/mL; concentration at 10 h ([1]; 100 mg/kg, t 10 h, IIIOLA (olaparib alone)): 480 ng/mL; concentration at 12 h ([1]; 100 mg/kg, t 12 h, IIIOLA (olaparib alone)): 196 ng/mL; concentration at 24 h ([1]; 100 mg/kg, t 24 h, IIIOLA (olaparib alone)): 27.2 ng/mL; concentration at 0.083 h ([1]; t 0.083 h, IMET+OLA (metformin and olaparib)): 1530 ng/mL; concentration at 0.167 h ([1]; t 0.167 h, IMET+OLA (metformin and olaparib)): 4270 ng/mL; concentration at 0.333 h ([1]; t 0.333 h, IMET+OLA (metformin and olaparib)): 7190 ng/mL; concentration at 0.5 h ([1]; t 0.500 h, IMET+OLA (metformin and olaparib)): 7240 ng/mL; concentration at 0.75 h ([1]; t 0.750 h, IMET+OLA (metformin and olaparib)): 7770 ng/mL; concentration at 1 h ([1]; t 1 h, IMET+OLA (metformin and olaparib)): 7120 ng/mL; concentration at 2 h ([1]; t 2 h, IMET+OLA (metformin and olaparib)): 6220 ng/mL; concentration at 3 h ([1]; t 3 h, IMET+OLA (metformin and olaparib)): 4080 ng/mL; concentration at 4 h ([1]; t 4 h, IMET+OLA (metformin and olaparib)): 3200 ng/mL; concentration at 6 h ([1]; t 6 h, IMET+OLA (metformin and olaparib)): 1190 ng/mL; concentration at 8 h ([1]; t 8 h, IMET+OLA (metformin and olaparib)): 490 ng/mL; concentration at 10 h ([1]; t 10 h, IMET+OLA (metformin and olaparib)): 155 ng/mL; concentration at 12 h ([1]; t 12 h, IMET+OLA (metformin and olaparib)): 94.4 ng/mL; concentration at 24 h ([1]; t 24 h, IMET+OLA (metformin and olaparib)): 74.8 ng/mL; AUC(0-inf) [1, 3]: 28600 ng·h/mL; AUC(0-t) [1, 3]: 28300 ng·h/mL; Cmax [1, 3]: 8720 ± 6800 ng/mL; Tmax [1, 3]: 1.18 ± 0.91 h; Vd/F [1, 3]: 22.5 ± 24.8 L; k el [1, 3]: 0.000122 s⁻¹; AUC(0-inf) [1, 4]: 29000 ng·h/mL; AUC(0-t) [1, 4]: 28300 ng·h/mL; Cmax [1, 4]: 9420 ± 6330 ng/mL; Tmax [1, 4]: 1.11 ± 0.75 h; Vd/F [1, 4]: 12.5 ± 11.6 L; k el [1, 4]: 9.44e-05 s⁻¹; Cl/F [1, 5]: 7.84 ± 15.21 l/h and 7.84 ± 15.21 (193.9) l/h; t0.5 [1, 5]: 4.79 ± 6.06 (126.5) h; Cl/F [1, 6]: 2.62 ± 2.07 l/h and 2.62 ± 2.07 (79.0) l/h; t0.5 [1, 6]: 3.18 ± 2.28 (71.7) h; C_ola ([1]; t 0.083 h, IMET+OLA (metformin and olaparib), individual rats 9-16): 399.8 ng/mL and 205.5 ng/mL and 1282.8 ng/mL and 2905.9 ng/mL and 1816.4 ng/mL and 1671.7 ng/mL and 346.2 ng/mL and 3579.7 ng/mL; C_ola ([1]; t 0.167 h, IMET+OLA (metformin and olaparib), individual rats 9-16): 735.8 ng/mL and 409.9 ng/mL and 5081.5 ng/mL and 9225.7 ng/mL and 5056.5 ng/mL and 3857.8 ng/mL and 1362.6 ng/mL and 8409.9 ng/mL; C_ola ([1]; t 0.333 h, IMET+OLA (metformin and olaparib), individual rats 9-16): 1895.1 ng/mL and 1378.1 ng/mL and 6639.2 ng/mL and 14659.7 ng/mL and 8931.6 ng/mL and 11236.6 ng/mL and 1385.6 ng/mL and 11426.1 ng/mL; C_ola ([1]; t 0.500 h, IIIOLA (olaparib alone), individual rats 1-8): 3742.4 ng/mL and 535.2 ng/mL and 12507.8 ng/mL and 7237.7 ng/mL and 6302.7 ng/mL and 1652.9 ng/mL and 418.2 ng/mL and 8077.9 ng/mL; C_ola ([1]; t 0.500 h, IMET+OLA (metformin and olaparib), individual rats 9-16): 3714.2 ng/mL and 1709.6 ng/mL and 7002.5 ng/mL and 13973.1 ng/mL and 6376.6 ng/mL and 773.6 ng/mL and 17095.7 ng/mL; C_ola ([1]; t 0.750 h, IIIOLA (olaparib alone), individual rats 1-8): 3804.2 ng/mL and 2586.8 ng/mL and 15300.4 ng/mL and 11009.1 ng/mL and 7991.7 ng/mL and 1511.2 ng/mL and 355.6 ng/mL and 8277 ng/mL; C_ola ([1]; t 0.750 h, IMET+OLA (metformin and olaparib), individual rats 9-16): 3217.4 ng/mL; C_ola ([1]; t 1 h, IIIOLA (olaparib alone), individual rats 1-8): 6130.9 ng/mL and 3469.6 ng/mL and 13706 ng/mL and 16348.7 ng/mL and 9042.2 ng/mL and 1418.9 ng/mL and 698.2 ng/mL and 6102.6 ng/mL; C_ola ([1]; t 2 h, IIIOLA (olaparib alone), individual rats 1-8): 8834.3 ng/mL and 2628.7 ng/mL and 19817.4 ng/mL and 10845 ng/mL and 3432.4 ng/mL and 1456.7 ng/mL and 45.1 ng/mL and 1370.2 ng/mL; C_ola ([1]; t 3 h, IIIOLA (olaparib alone), individual rats 1-8): 10275 ng/mL and 2662.1 ng/mL and 12843.4 ng/mL and 4820.1 ng/mL and 969 ng/mL and 1168.9 ng/mL and 6.7 ng/mL and 409.4 ng/mL; C_ola ([1]; t 4 h, IIIOLA (olaparib alone), individual rats 1-8): 437.9 ng/mL and 948.8 ng/mL and 197 ng/mL; C_ola ([1]; t 6 h, IIIOLA (olaparib alone), individual rats 1-8): 5403.6 ng/mL and 829.1 ng/mL and 4359.8 ng/mL and 822.4 ng/mL and 31.7 ng/mL and 206.3 ng/mL and 4.8 ng/mL and 35.7 ng/mL; C_ola ([1]; t 8 h, IIIOLA (olaparib alone), individual rats 1-8): 2408.4 ng/mL and 295.6 ng/mL and 2024.1 ng/mL and 243.9 ng/mL and 17.4 ng/mL and 116.3 ng/mL; C_ola ([1]; t 10 h, IIIOLA (olaparib alone), individual rats 1-8): 701.7 ng/mL and 75.4 ng/mL and 1071 ng/mL and 70.2 ng/mL; C_ola ([1]; t 12 h, IIIOLA (olaparib alone), individual rats 1-8): 362.3 ng/mL and 53.7 ng/mL and 337 ng/mL and 32.3 ng/mL; C_ola ([1]; t 24 h, IIIOLA (olaparib alone), individual rats 1-8): 34.8 ng/mL and 36.4 ng/mL and 10.4 ng/mL; inhibition of OCT2 (OCT2): inhibits; inhibition of MATE1 (MATE1): inhibits; inhibition of BCRP (BCRP): inhibits; inhibition of OCT1 (OCT1): inhibits; percentage of late apoptotic cells [2]: 5.1%; inhibition of OATP1B1 (OATP1B1): inhibits; inhibition of OAT3 (OAT3): inhibits
